According to patent US9120749B2, “Quinoline derivatives and MELK inhibitors containing the same” (ONCOTHERAPY SCIENCE, INC., priority 2010, dated 2015):

Key:
T47D cells = test: Cell-based assay: anti-proliferative activity, Cell Counting Kit-8, 72 hours (T47D); conditions: Homo sapiens, T47D, 72 h
Method in brief: (§1)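 IC50 values come from CCK-8 growth measurements taken 72 hours post-treatment of plated cells with test compounds. Expression of MELK across the panel was assessed through immunoblot of unfractionated lysates.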

DU4475 cells = test: Cell-based assay: anti-proliferative activity, Cell Counting Kit-8, 72 hours (DU4475); conditions: Homo sapiens, DU-4475, 72 h
HT-1197 cells = test: Cell-based assay: anti-proliferative activity, Cell Counting Kit-8, 72 hours (HT-1197, negative control without MELK expression); conditions: Homo sapiens, HT1197, 72 h, HT1197 cells (negative control, no MELK expression), 72 hours
Method in brief: as §1

MELK = MELK (Homo sapiens, UniProt Q14680); test: Kinase assay: MELK activity, phosphorylation of FITC-labeled histone H3 peptide measured by IMAP fluorescence polarization; type: biochemical; conditions: read-out: IC50 (μM) (kinase assay)
Chain of MELK (Q14680 whole entry, looked up): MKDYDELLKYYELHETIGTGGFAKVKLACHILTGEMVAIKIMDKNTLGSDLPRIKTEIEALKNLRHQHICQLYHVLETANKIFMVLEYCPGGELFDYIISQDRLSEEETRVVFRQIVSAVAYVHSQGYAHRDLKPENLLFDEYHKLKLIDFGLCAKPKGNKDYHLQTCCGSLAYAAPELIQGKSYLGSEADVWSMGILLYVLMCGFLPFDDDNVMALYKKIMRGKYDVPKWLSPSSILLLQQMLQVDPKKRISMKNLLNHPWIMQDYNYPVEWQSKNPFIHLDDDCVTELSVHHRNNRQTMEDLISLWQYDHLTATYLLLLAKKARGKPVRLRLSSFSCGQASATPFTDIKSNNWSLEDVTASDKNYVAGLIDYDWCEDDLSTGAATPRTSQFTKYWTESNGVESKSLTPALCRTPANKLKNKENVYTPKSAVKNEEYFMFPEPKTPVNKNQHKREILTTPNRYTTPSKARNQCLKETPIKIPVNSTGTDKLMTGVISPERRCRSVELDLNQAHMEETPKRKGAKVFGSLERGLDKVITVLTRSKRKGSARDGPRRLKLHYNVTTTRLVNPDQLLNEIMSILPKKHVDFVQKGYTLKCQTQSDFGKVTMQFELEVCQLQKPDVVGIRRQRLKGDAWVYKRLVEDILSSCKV
Method in brief: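 Substrate is FITC-labeled histone H3 peptide. Compounds come from a 12.5 mM DMSO stock, diluted so assay DMSO is 1%. The stop step adds threefold-volume progressive binding solution, followed by 0.5 h at room temperature and an FP read.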

A549 cells = test: Cell-based assay: anti-proliferative activity, Cell Counting Kit-8, 72 hours (A549); conditions: Homo sapiens, A549, 72 h, 72 hours
Method in brief: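 Cell Counting Kit-8 read-out of A549 growth after 72 hours of inhibitor exposure, cells plated in 96-well format. Values reported as IC50.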

Structure (SMILES) | IC50 (T47D cells) | IC50 (DU4475 cells) | IC50 (HT-1197 cells) | IC50 (MELK) | IC50 (A549 cells)
COc1cc(-c2ccc3ncc(C(=O)C4CC4)c(Nc4ccc(C(O)CN(C)C)cc4)c3c2)cc(Cl)c1O (stereo not shown) [Example 708, (6-(3-chloro-4-hydroxy-5-methoxyphenyl)-4-(4-(2-(dimethylamino)-1-hydroxyethyl)phenylamino)quinolin-3-yl)(cyclopropyl)methanone] | 0.41 µM | 0.25 µM | 4.6 µM | 0.0065 µM | 0.3 µM
CN(C)C1CCN(Cc2ccc(Nc3c(C(=O)C4CC4)cnc4ccc(-c5cc(F)c(O)c(Cl)c5)cc34)cc2)C1 (stereo not shown) [Example 696, (6-(3-chloro-5-fluoro-4-hydroxyphenyl)-4-(4-((3-(dimethylamino)pyrrolidin-1-yl)methyl)phenylamino)quinolin-3-yl)(cyclopropyl)methanone] | 0.46 µM | 0.17 µM | 5.4 µM | 0.012 µM | 0.18 µM
CC(=O)c1cnc2ccc(-c3cc(F)c(O)c(Cl)c3)cc2c1Nc1ccc(CN2CCN(C)CC2)cc1 [Example 656, 1-(6-(3-chloro-5-fluoro-4-hydroxyphenyl)-4-(4-((4-methylpiperazin-1-yl)methyl)phenylamino)quinolin-3-yl)ethanone] | 0.19 µM | 0.27 µM | 6.1 µM | 0.033 µM | 0.41 µM
CC(=O)c1cnc2ccc(-c3cc(Cl)c(O)c(Cl)c3)cc2c1Nc1ccc(CCN(C)C)cc1 [Example 744, 1-(6-(3,5-dichloro-4-hydroxyphenyl)-4-(4-(2-(dimethylamino)ethyl)phenylamino)quinolin-3-yl)ethanone] | 0.11 µM | 0.031 µM | 0.43 µM | 0.0017 µM | 0.082 µM
COc1cc(-c2ccc3ncc(C(C)=O)c(N[C@H]4CC[C@H](CN5CCCC5)CC4)c3c2)cc(Cl)c1O [Example 734] | 0.51 µM | 0.36 µM | 6.4 µM | 0.0016 µM | 0.25 µM
COc1cc(-c2ccc3ncc(C(=O)C4CC4)c(Nc4ccc(CN5CCC(N(C)C)C5)cc4)c3c2)cc(Cl)c1O (stereo not shown) [Example 697, (6-(3-chloro-4-hydroxy-5-methoxyphenyl)-4-(4-((3-(dimethylamino)pyrrolidin-1-yl)methyl)phenylamino)quinolin-3-yl)(cyclopropyl)methanone] | 0.81 µM | 0.64 µM | 1.8 µM | 0.0084 µM | 0.44 µM
COc1cc(-c2ccc3ncc(C(C)=O)c(N[C@H]4CC[C@H](CCN(C)C)CC4)c3c2)cc(Cl)c1O [Example 738] | 0.51 µM | 2.1 µM | 7.8 µM | 0.0026 µM | 0.34 µM
N[C@@H]1CCCN(c2ccc(Nc3c(C(=O)C4CC4)cnc4ccc(-c5cc(F)c(O)c(Cl)c5)cc34)cn2)C1 [Example 651, (R)-(4-(6-(3-aminopiperidin-1-yl)pyridin-3-ylamino)-6-(3-chloro-5-fluoro-4-hydroxyphenyl)quinolin-3-yl)(cyclopropyl)methanone] | 0.0054 µM | 0.0071 µM | 0.12 µM | 0.00076 µM | 0.0075 µM
O=C(c1cnc2ccc(-c3cc(F)c(O)c(Cl)c3)cc2c1Nc1ccc(NC2CCNC2)nc1)C1CC1 (stereo not shown) [Example 667, (6-(3-chloro-5-fluoro-4-hydroxyphenyl)-4-(6-(pyrrolidin-3-ylamino)pyridin-3-ylamino)quinolin-3-yl)(cyclopropyl)methanone] | 0.17 µM | 0.077 µM | 10 µM | 0.01 µM | 7.7 µM
O=C(c1cnc2ccc(-c3cc(Cl)c(O)c(Cl)c3)cc2c1NC1CCNCC1)C1CC1 [Example 726, cyclopropyl(6-(3,5-dichloro-4-hydroxypheny)-4-(piperidin-4-ylamino)quinolin-3-yl)methanone] | 0.56 µM | 0.14 µM | 2.4 µM | 0.0057 µM | 0.52 µM
CN1CCN(Cc2ccc(Nc3c(C(=O)C4CC4)cnc4ccc(-c5cc(Cl)c(O)c(Cl)c5)cc34)cn2)CC1 [Example 682, cyclopropyl(6-(3,5-dichloro-4-hydroxyphenyl)-4-(6-((4-methylpiperazin-1-yl)methyl)pyridin-3-ylamino)quinolin-3-yl)methanone] | 0.55 µM | 0.32 µM | 14 µM | 0.018 µM | 0.7 µM
CN(C)CC(O)c1ccc(Nc2c(C(=O)C3CC3)cnc3ccc(-c4cc(Cl)c(O)c(Cl)c4)cc23)cc1 (stereo not shown) [Example 709, Cyclopropyl{6-(3,5-dichloro-4-hydroxyphenyl)-4-[4-(2-(dimethylamino)-1-hydroxyethyl)phenylamino]quinolin-3-yl}methanone] | 0.2 µM | 0.077 µM | 3.8 µM | 0.0035 µM | 0.14 µM
COc1cc(-c2ccc3ncc(C(=O)C4CC4)c(Nc4ccc(N5CCC[C@H](N)C5)nc4)c3c2)cc(Cl)c1O [Example 660, (S)-(4-(6-(3-aminopiperidin-1-yl)pyridin-3-ylamino)-6-(3-chloro-4-hydroxy-5-methoxyphenyl)quinolin-3-yl)(cyclopropyl)methanone] | 0.1 µM | 0.046 µM | 2.9 µM | 0.0024 µM | 0.22 µM
O=C(c1cnc2ccc(-c3cc(F)c(O)c(Cl)c3)cc2c1Nc1ccc(CN2CCCC2)nc1)C1CC1 [Example 672, (6-(3-chloro-5-fluoro-4-hydroxyphenyl)-4-(6-(pyrrolidin-1-ylmethyl)pyridin-3-ylamino)quinolin-3-yl)(cyclopropyl)methanone] | 0.39 µM | 0.16 µM | 3.2 µM | 0.014 µM | 0.17 µM
NC1CCN(c2cc(Nc3c(C(=O)C4CC4)cnc4ccc(-c5cc(Cl)c(O)c(Cl)c5)cc34)ccn2)CC1 [Example 735, (4-(2-(4-aminopiperidin-1-yl)pyridin-4-ylamino)-6-(3,5-dichloro-4-hydroxyphenyl)quinolin-3-yl)(cyclopropyl)methanone] | 1 µM | 0.5 µM | 20 µM | 0.0041 µM | 3.5 µM
COc1cc(-c2ccc3ncc(C(=O)C(C)C)c(Nc4ccc(N5CCNCC5)nc4)c3c2)cc(Cl)c1O [Example 680, 1-(6-(3-chloro-4-hydroxy-5-methoxyphenyl)-4-(6-(piperazin-1-yl)pyridin-3-ylamino)quinolin-3-yl)-2-methylpropan-1-one] | 0.59 µM | 1 µM | 2.4 µM | 0.011 µM | 1.3 µM
COc1cc(-c2ccc3ncc(C(=O)C4CC4)c(Nc4ccc(OCCN(C)C)nc4)c3c2)cc(Cl)c1O [Example 712, (6-(3-chloro-4-hydroxy-5-methoxyphenyl)-4-(6-(2-(dimethylamino)ethoxy)pyridin-3-ylamino)quinolin-3-yl)(cyclopropyl)methanone] | 0.31 µM | 0.34 µM | 5.4 µM | 0.0036 µM | 0.31 µM
COc1cc(-c2ccc3ncc(C(=O)C4CC4)c(N[C@H]4CC[C@H](CN5CCN(C)CC5)CC4)c3c2)cc(Cl)c1O [Example 637] | 0.68 µM | 0.67 µM | 2.9 µM | 0.0035 µM | 0.32 µM
COc1cc(-c2ccc3ncc(C(=O)C4CC4)c(NC4CCC(N5CCC(OC)C5)CC4)c3c2)cc(Cl)c1O (stereo not shown) [Example 687, (6-(3-chloro-4-hydroxy-5-methoxyphenyl)-4-(4-(3-methoxypyrrolidin-1-yl)cyclohexylamino)quinolin-3-yl)(cyclopropyl)methanone] | 0.63 µM | 0.33 µM | 3.3 µM | 0.0033 µM | 0.45 µM
CN(C)C1CCN(c2ccc(Nc3c(C(=O)C4CC4)cnc4ccc(-c5cc(F)c(O)c(Cl)c5)cc34)cn2)C1 (stereo not shown) [Example 691, (6-(3-chloro-5-fluoro-4-hydroxyphenyl)-4-(6-(3-(dimethylamino)pyrrolidin-1-yl)pyridin-3-ylamino)quinolin-3-yl)(cyclopropyl)methanone] | 0.18 µM | 0.22 µM | 5.9 µM | 0.012 µM | 0.32 µM
CN1CCCC(n2cc(Nc3c(C(=O)C4CC4)cnc4ccc(-c5cc(Cl)c(O)c(Cl)c5)cc34)cn2)C1 (stereo not shown) [Example 703, Cyclopropyl{6-(3,5-dichloro-4-hydroxyphenyl)-4-[1-(1-methylpiperidin-3-yl)-1H-pyrazol-4-ylamino]quinolin-3-yl}methanone] | 0.33 µM | 0.052 µM | 5.5 µM | 0.0013 µM | 0.11 µM
O=C(c1cnc2ccc(-c3cc(F)c(O)c(Cl)c3)cc2c1NC1CCC(N2CC[C@@H](F)C2)CC1)C1CC1 (stereo partly drawn) [Example 642, (R)-(6-(3-chloro-5-fluoro-4-hydroxyphenyl)-4-(4-(3-fluoropyrrolidin-1-yl)cyclohexylamino)quinolin-3-yl)(cyclopropyl)methanone] | 0.17 µM | 0.11 µM | 0.76 µM | 0.0075 µM | 0.2 µM
CN(C)CCc1cccc(Nc2c(C(=O)C3CC3)cnc3ccc(-c4cc(F)c(O)c(Cl)c4)cc23)c1 [Example 693, {6-(3-Chloro-5-fluoro-4-hydroxyphenyl)-4-[3-(2-(dimethylamino)ethyl)phenylamino]quinolin-3-yl}(cyclopropyl)methanone] | 0.37 µM | 0.085 µM | 10 µM | 0.0083 µM | 0.09 µM
